Experimental data: publication PMC12040169 (PLOS Biology, 2025)

Assay: in vitro
Conditions: human, hela cells, % viability

| SMILES | viability at 28.5 h, 10 µM | viability at 28.5 h, 10 µM (bulk resorufin, single well) |
| --- | --- | --- |
| CC(C)N(C(=O)Cn1nc(-c2cccs2)ccc1=O)C(C)C [CBK282638] | 90% |  |
| O=C(NCCCc1ccccn1)c1cccc(N2CCCC2=O)c1 [CBK282643] | 85.9% |  |
| Cc1ccn(CCNC(=O)c2cc3cccc(C)c3nc2C)n1 [CBK282645] | 82.3% |  |
| CCC(=O)NCCCn1c(-c2cccnc2C)cc2cccnc21 [CBK282646] | 90.4% |  |
| O=C(CCn1c(-c2cccnc2)cc2cccnc21)NC1CCCCC1 [CBK282647] | 85.8% |  |
| Cc1n[nH]cc1CN(CCCn1ccnc1)Cc1cccc(F)c1 [CBK282650] | 90.1% |  |
| CCC(NC(=O)Cc1c(C)nc(SC)[nH]c1=O)c1ccc(F)cc1 (stereo not shown) [CBK282653] | 81.7% |  |
| Cn1nc(C2CCCN(C(=O)C3CC3)C2)c2cccnc21 (stereo not shown) [CBK282654] | 89.4% |  |
| Cc1ccn(CCNC(=O)CCN2Cc3ccccc3C2=O)n1 [CBK282655] | 86.4% |  |
| CC1(C(=O)NC2CCN(Cc3cccc(F)c3)CC2)CCCO1 (stereo not shown) [CBK282658] | 91.6% |  |
| CCCn1cc(CN2C3CCC2CC(O)(c2ccccc2F)C3)cn1 (stereo not shown) [CBK282664] | 99.3% |  |
| CC1CC(C)CN(CCCNC(=O)c2cc(C(C)C)nn2C)C1 (stereo not shown) [CBK282665] | 106% |  |
| C=C(C)CN1CCN(C(=O)c2[nH]c3ccc(OCC)cc3c2C)CC1 [CBK282666] | 96.7% |  |
| CC(NC(=O)C1C=CCN1S(C)(=O)=O)c1ccc2c(c1)CCC2 (stereo not shown) [CBK282667] | 88.7% |  |
| CCCC(NC(=O)C1C=CCN1S(C)(=O)=O)c1cccs1 (stereo not shown) [CBK282668] | 92.9% |  |
| CCn1cc(CC(=O)Nc2cccc(-n3cnnc3)c2)c2ccccc21 [CBK282669] | 66.4% |  |
| Cc1nccn1CC1(O)CCN(Cc2c[nH]c3ccccc23)CC1 [CBK282671] | 82.1% |  |
| O=C(c1ccccc1F)N1CCCC(c2n[nH]c3ncccc23)C1 (stereo not shown) [CBK282672] | 101% |  |
| Cc1nn(C(C)CC(=O)NCCN2CCc3ccccc32)c(C)c1C (stereo not shown) [CBK282675] | 87.1% |  |
| CC(=O)N1CCc2nc(NC(=O)c3cccs3)sc2C1 [CBK282680] | 74.9% |  |
| O=C(Cn1c(-c2ccco2)cc2cccnc21)N1CCCC1 [CBK282683] | 84.8% |  |
| O=C(NCCCc1ccc(F)cc1)c1cccc(N2CCCC2=O)c1 [CBK282684] | 88.6% |  |
| Cc1ncccc1-c1cc2cccnc2n1CCCNC(=O)C1CC1 [CBK282687] | 81.5% |  |
| Cc1ncccc1-c1cc2cccnc2n1CCCNC(=O)C1CC1C (stereo not shown) [CBK282688] | 101% |  |

| SMILES | viability at 28.5 h, 10 µM | viability at 28.5 h, 10 µM (bulk resorufin, single well) |
| --- | --- | --- |
| Cc1ncccc1-c1cc2cccnc2n1CCC(=O)NC1CC1 [CBK282690] | 106% |  |
| CC(C)(C)NC(=O)CCn1c(-c2cccnc2)cc2cccnc21 [CBK282691] | 109% |  |
| CC1CCCCN1C(=O)CCn1c(-c2cccnc2)cc2cccnc21 (stereo not shown) [CBK282692] | 97.1% |  |
| C=CCN1CCC2(CC1)CN(C(C)=O)Cc1cc(C)ccc1O2 [CBK282693] | 97.5% |  |
| COc1ccccc1CCCNC(=O)CC1CCCCN1C (stereo not shown) [CBK282694] | 101% |  |
| CCC1CCCCN1CC(=O)N1CCCC1c1nc2ccccc2[nH]1 (stereo not shown) [CBK282695] | 93.5% |  |
| Cc1cccc(CNC(Cc2ccsc2)c2nccs2)n1 (stereo not shown) [CBK282697] |  | 106% |
| CCc1cccc2c(CC(=O)NCCn3ccc(C)n3)c(C)[nH]c12 [CBK282698] | 105% |  |
| Cc1[nH]c2ccc(Cl)cc2c1CC(=O)N(C)CCN(C)C [CBK282700] | 95.5% |  |
| Cc1nn(C(C)CC(=O)NCC2CCN(C(C)C)CC2)c(C)c1C (stereo not shown) [CBK282703] | 84.2% |  |
| C=CCC1(CC=C)CCN1C(=O)c1cccc(N2CCCC2=O)c1 [CBK282709] | 85% |  |
| CC1(C(=O)NC(c2ccncc2)c2ccc(Cl)cc2)CCCO1 (stereo not shown) [CBK282710] | 89.5% |  |
| CC(C)N1CCC(CNC(=O)c2cc3ccccc3c(=O)s2)CC1 [CBK282711] | 88.6% |  |
| C=C(C)CN1CCN(C(=O)CSc2nccc3ccccc23)CC1 [CBK282712] | 88.4% |  |
| Cc1cc2c(cc1Cl)C(=O)CC1(CCNCC1)O2 [CBK282715] | 83.1% |  |
| CC(C)C(=O)N1C[C@@H](N(C)C)[C@H](c2cn(C)c3ccccc23)C1 [CBK282717] | 91.2% |  |
| Cc1nn(C)cc1CN1CCN(CC2(c3ccccc3)CC2)CC1 [CBK282721] | 105% |  |
| NC[C@H]1CC[C@H](C(=O)NCCN2CCc3ccccc32)CC1 [CBK282723] | 82.7% |  |
| COc1ccc(CC(=O)N(C)CCN2CCCCC2)cc1C [CBK282728] | 99.3% |  |
| CCn1ncc(S(=O)(=O)Nc2ccc3c(ccn3C)c2)c1C [CBK282730] | 102% |  |
| Cc1cc(C)c2c(CC(=O)N(C)CCN(C)C)c(C)[nH]c2c1 [CBK282732] | 83.6% |  |
| Cc1ccc(C2(O)CCN(Cc3c(C)nc4cc(C)ccn34)CC2)cc1 [CBK282733] | 80.5% |  |
| Cc1ccc(C2(O)CCN(Cc3c(C)nc4sccn34)CC2)cc1 [CBK282734] | 85.8% |  |
| CCCn1cc(CN2CCC(O)(c3ccc(C)cc3)CC2)cn1 [CBK282737] | 103% |  |

| SMILES | viability at 28.5 h, 10 µM | viability at 28.5 h, 10 µM (bulk resorufin, single well) |
| --- | --- | --- |
| C=Cn1ncc(CN2C3CCC2CC(O)(c2ccc(F)cc2)C3)c1C (stereo not shown) [CBK282738] | 104% |  |
| Cn1c(=O)n(C)c2cc(CNC3(c4ccccc4)CC3)ccc21 [CBK282746] | 87.9% |  |
| COc1ccc(C)cc1CC(=O)N(C)CCN1CCCCC1 [CBK282750] | 88.7% |  |
| CCC(CN1CCCC1)NC(=O)Cc1c(C)[nH]c2ccc(F)cc12 (stereo not shown) [CBK282751] | 76.4% |  |
| CCC(CN1CCCC1)NC(=O)Cc1ccc(OC)c(C)c1 (stereo not shown) [CBK282752] | 92.9% |  |
| CCn1cc(CN2C3CCC2CC(O)(c2cccc(F)c2)C3)c(C)n1 (stereo not shown) [CBK282755] | 80.9% |  |
| CCn1cc(S(=O)(=O)N2CCCC3(CCCCC3)C2)c(C)n1 [CBK282756] | 83.9% |  |
| CCC(CN1CCCC1)NC(=O)C1CC(=O)Nc2ccccc21 (stereo not shown) [CBK282757] | 90.6% |  |
| CCC(CN1CCCC1)NC(=O)C1(c2ccccc2)CCOCC1 (stereo not shown) [CBK282758] | 96.6% |  |
| CCC(CN1CCCC1)NC(=O)Cc1cc(C)ccc1OC (stereo not shown) [CBK282759] | 83.2% |  |
| O=S(=O)(NCC1(c2ccccc2)CCCC1)c1cccnc1 [CBK282762] | 102% |  |
| COC(=O)Cn1c(-c2ccc(F)cc2)cc2cccnc21 [CBK282763] | 91.5% |  |
| NC[C@H]1CC[C@H](C(=O)NCC2CCCN(Cc3ccccc3)C2)CC1 (stereo partly shown) [CBK282764] | 89.6% |  |
| CCn1cc(NC(=O)CCn2c(C(F)F)cc3cccnc32)cn1 [CBK282769] | 97.1% |  |
| CN(C)CCN(Cc1cccnc1)C(=O)C1(c2ccccc2F)CC1 [CBK282771] | 97% |  |
| O=C(CC1CCS(=O)(=O)C1)NC1(c2ccc(Cl)cc2)CC1 (stereo not shown) [CBK282773] | 97.6% |  |
| CCC(CN1CCOCC1)NC(=O)Cc1c(C)[nH]c2ccc(F)cc12 (stereo not shown) [CBK282774] | 92.6% |  |
| O=C(NC1(c2ccccc2)CC1)c1cc(-n2cnnc2)ccc1Cl [CBK282777] | 97.2% |  |
| O=C(NC1(c2ccccc2)CC1)c1ccc(-n2cnnc2)cc1 [CBK282778] | 111% |  |
| O=C(NC1(c2ccccc2)CC1)c1cccc(-n2cnnc2)c1 [CBK282779] | 99.1% |  |
| OC1(c2cccnc2)CCN(CC2(c3ccc(Cl)cc3)CC2)CC1 [CBK282780] | 93% |  |
| CN1CCC(N(CCO)CC2(c3ccc(Cl)cc3)CC2)CC1 [CBK282781] | 96.6% |  |
| CN(C)CCN1CCN(CC2(c3ccc(Cl)cc3)CC2)CC1 [CBK282783] | 103% |  |
| CCC(CN1CCN(C)CC1)NC(=O)Cc1ccc2c(c1)CCC2 (stereo not shown) [CBK282784] | 92.2% |  |

| SMILES | viability at 28.5 h, 10 µM | viability at 28.5 h, 10 µM (bulk resorufin, single well) |
| --- | --- | --- |
| CCC(CN1CCN(C)CC1)NC(=O)C1(c2ccc(F)cc2)CC1 (stereo not shown) [CBK282785] | 104% |  |
| CCC(CN1CCN(C)CC1)NC(=O)C1(c2cccc(F)c2)CC1 (stereo not shown) [CBK282786] | 110% |  |
| CCC(CN1CCOCC1)NC(=O)Cc1coc2cc(C)ccc12 (stereo not shown) [CBK282791] | 93.3% |  |
| Cn1cc(CN2CCN(CC3(c4ccccc4)CC3)CC2)cn1 [CBK282794] | 109% |  |
| OC1(c2ccccc2)CCN(Cc2ccccc2-n2cccn2)C1 (stereo not shown) [CBK282795] | 96.5% |  |
| Cc1nn(C)cc1S(=O)(=O)N1CCc2cc(Cl)ccc21 [CBK282802] | 107% |  |
| NC(=O)Cn1cc(CN2CCC(c3ccccc3)C2)c2ccccc21 (stereo not shown) [CBK282803] | 92.3% |  |
| COCC(=O)NC(Cc1ccsc1)c1nc(C)cs1 (stereo not shown) [CBK282804] | 99.5% |  |
| Cc1nn(C)cc1S(=O)(=O)Nc1ccc2c(ccn2C)c1 [CBK282806] | 77.4% |  |
| O=C1CCCN1c1ccc(CN2CCC(O)(c3ccccc3)C2)cc1 (stereo not shown) [CBK282808] | 98.4% |  |
| CCC(CN1CCOCC1)NC(=O)Cc1coc2cc(C)c(C)cc12 (stereo not shown) [CBK282811] | 91% |  |
| Cc1ccc2oc(CN3CCC(O)(c4cccnc4)CC3)c(C)c2c1 [CBK282816] | 94.7% |  |
| Cc1nc(CC(=O)NC(Cc2ccsc2)c2nccs2)cs1 (stereo not shown) [CBK282823] | 87.5% |  |
| O=C(NC(Cc1ccsc1)c1nccs1)C1CCOCC1 (stereo not shown) [CBK282824] | 96.4% |  |
| C=C(C)CN1CCN(Cc2c[nH]nc2C(C)(C)C)CC1 [CBK282827] | 92.6% |  |
| C=C(C)CN1CCN(Cc2cnn(C3CCCCC3)c2)CC1 [CBK282828] | 98.9% |  |
| Cc1ccc(O)c(CN(CCCn2ccnc2)CC2CC=CCC2)c1 (stereo not shown) [CBK282829] | 86.7% |  |
| COCCC(=O)NC(Cc1ccsc1)c1nc(C)cs1 (stereo not shown) [CBK282830] | 85.1% |  |
| Cc1csc(C(Cc2ccsc2)NC(=O)Cn2cccn2)n1 (stereo not shown) [CBK282831] | 89.7% |  |
| O=C(c1ccccn1)N1CCCC(c2cc3ccccc3cn2)C1 (stereo not shown) [CBK282832] | 96.3% |  |
| COc1ccc(C2(NCc3cn(CC(N)=O)c4ccccc34)CC2)cc1 [CBK282833] | 107% |  |
| COc1ccc(C2(NCc3c(C)nc4sccn34)CC2)cc1 [CBK282835] | 95.2% |  |
